Data on twelve compounds can be found in the Kinase Knowledgebase extract (Sharma et al. 2016).

pIC50: −log10 of the molar value.

Broadly, the pIC50 is the IC50 on a negative log10 scale, so that one unit is a factor of ten. A high value points to a low IC50. The inhibition is how much of the control response was suppressed. High values mean a strong effect, low ones a weak effect.

The target in one experiment is MAPK14 (human) (UniProt Q16539). Description: p38 Kinase Inhibition.
Chain of MAPK14 (human) (Q16539 whole entry, looked up): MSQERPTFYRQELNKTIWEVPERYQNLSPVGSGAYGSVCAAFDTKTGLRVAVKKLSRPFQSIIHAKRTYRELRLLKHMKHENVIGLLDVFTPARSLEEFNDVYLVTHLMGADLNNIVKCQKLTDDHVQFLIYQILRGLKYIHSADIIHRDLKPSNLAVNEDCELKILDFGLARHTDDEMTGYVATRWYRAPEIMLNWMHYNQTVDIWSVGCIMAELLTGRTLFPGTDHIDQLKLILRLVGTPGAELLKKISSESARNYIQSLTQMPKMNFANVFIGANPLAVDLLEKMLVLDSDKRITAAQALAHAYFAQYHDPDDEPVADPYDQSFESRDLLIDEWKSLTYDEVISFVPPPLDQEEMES
Conditions: not given
Regarding `CSc1nccc(-c2c3cccccc-3nc2-c2ccc(F)cc2)n1`, the pIC50 was 5.59.
The same measure, in the same setting: the figure for `Cc1ccc(-c2nc3cccccc-3c2-c2ccncc2)cc1` is 5.32; for `Fc1ccc(-c2nc3cccccc-3c2-c2ccncc2)cc1` it is 5.87.
With `FC(F)(F)c1cccc(-c2nc3cccccc-3c2-c2ccncc2)c1`, the pIC50 was 5.83.
On to `Fc1ccc(-c2nc3cccccc-3c2-c2ccnc(F)c2)cc1`, for which the negative-log IC50 (pIC50) is 5.48. This pIC50 lies 0.35 log units lower than the previous one.
`Clc1ccc(-c2nc3cccccc-3c2-c2ccncc2)cc1` showed a pIC50 of 5.55. The pIC50 values of the last two compounds are within 0.2 log units of each other.
On to `Clc1cccc(-c2nc3cccccc-3c2-c2ccncc2)c1`, for which the pIC50 is 5.30.
With `Fc1cc(-c2c3cccccc-3nc2-c2cccc(Cl)c2)ccn1`, the pIC50 was 6.03.
Compound `Fc1cc(-c2c3cccccc-3nc2-c2cccc(C(F)(F)F)c2)ccn1` gave a pIC50 of 4.92. Against the preceding compound, the pIC50 is 1.11 log units lower.
Turning to `CNc1nccc(-c2c3cccccc-3nc2-c2ccc(F)cc2)n1`, the pIC50 was 4.77.
Still for that read-out and setting: as for `CNc1nccc(-c2c3cccccc-3nc2-c2cccc(C(F)(F)F)c2)n1`, the figure is 5.55; as for `COc1ccc(-c2nc3cccccc-3c2-c2ccncc2)cc1`, 4.62.

The target in a further experiment is MAPK14 (UniProt Q16539). Description: p38 --- TNF-alpha Inhibition. Particulars: thp1.
Chain of MAPK14 (Q16539 whole entry, looked up): as above
As to `CSc1nccc(-c2c3cccccc-3nc2-c2ccc(F)cc2)n1`, the pIC50 was 5.35.
The compound `Cc1ccc(-c2nc3cccccc-3c2-c2ccncc2)cc1` gave a pIC50 of 6.58.
As to `Fc1ccc(-c2nc3cccccc-3c2-c2ccncc2)cc1`, the pIC50 was 6.64.
The compound `FC(F)(F)c1cccc(-c2nc3cccccc-3c2-c2ccncc2)c1` showed a negative logarithm of the IC50 (pIC50) of 6.80.
The same measure, in the same setting: as for `Fc1ccc(-c2nc3cccccc-3c2-c2ccnc(F)c2)cc1`, the figure is 5.81; as for `Clc1ccc(-c2nc3cccccc-3c2-c2ccncc2)cc1`, 5.85.
Still for that read-out and setting: the figure for `Clc1cccc(-c2nc3cccccc-3c2-c2ccncc2)c1` is 5.85; for `Fc1cc(-c2c3cccccc-3nc2-c2cccc(Cl)c2)ccn1` it is 6.02.
Take `Fc1cc(-c2c3cccccc-3nc2-c2cccc(C(F)(F)F)c2)ccn1`: the pIC50 is 5.79.
`CNc1nccc(-c2c3cccccc-3nc2-c2ccc(F)cc2)n1` had a pIC50 of 5.77. The pIC50 values of the last two compounds are within 0.2 log units of each other.
`CNc1nccc(-c2c3cccccc-3nc2-c2cccc(C(F)(F)F)c2)n1` gave a pIC50 of 6.17.

Staying with this experiment, now noted: thp1, concentration not given here.
On to `COc1ccc(-c2nc3cccccc-3c2-c2ccncc2)cc1`, for which the inhibition turned out to be 37%.
